Data taken from publication PMC4192606, “Agrobacterium Uses a Unique Ligand-Binding Mode for Trapping Opines and Acquiring A Competitive Advantage in the Niche Construction on Plant Host” (PLoS Pathogens, 2014).
Where “and” joins values, the source holds several entries; their conditions need not be identical. Equal values may be shown once.

Tests used:
[1] = tested on: A. tumefaciens C58 nocT mutant; assay: Growth assay on opine as sole carbon and nitrogen source, nocT mutant; type: cell-based, Agrobacterium tumefaciens C58; conditions: opine as sole source of carbon and nitrogen at 3 mM, AB medium, OD600 after 24 hours
Description: (§1) The A. tumefaciens C58 derivatives carrying pTi-accR::Gm and pTi::Gm (used as C58-control in plant assay) in which the genes accR (atu6138) and atu6147 were disrupted by inserting a gentamicin resistance cassette were already constructed. The A. tumefaciens C58 derivatives harbouring the Ti-plasmid pTi-nos::Km, pTi-ocd::Gm, pTi-nocT::Gm were obtained by insertion of a gentamicin (Gm) or kanamycin (Km) resistance cassette into the genes nos ( = atu6015), ocd ( = atu6016), and nocT ( = atu6027) as described previously.
(§2) A. tumefaciens was cultivated at 30°C in Agrobacterium broth (AB) minimal medium supplemented with ammonium chloride (1 g/L) and mannitol (2 g/L) except when an alternative source of carbon and nitrogen is indicated, or in Luria-Bertani modified medium (LBm; NaCl 5 g/L). In growth assay nopaline and pyronopaline were added as a sole carbon and nitrogen source at 3 mM (ca 1 g/L). The antibiotics gentamycin and kanamycin were added at 25 µg/mL and 50 µg/mL, respectively.

NocT [2] = biological target: T1, NocT (Agrobacterium fabrum, UniProt P35120); assay: KD measurement by intrinsic protein fluorescence titration, wild-type NocT; type: binding, Agrobacterium tumefaciens C58; conditions: 25°C, 25 mM Tris-HCl pH 8.0, 150 mM NaCl, 5 µM protein, triplicates; for Kd: read-out: KD (fluorescence titration), NocT wt
T1 construct: The X-ray structures of the mature free-liganded NocT; made in house; host or cells: E. coli Rosetta pLysS
T1 sequence (P35120 26-283): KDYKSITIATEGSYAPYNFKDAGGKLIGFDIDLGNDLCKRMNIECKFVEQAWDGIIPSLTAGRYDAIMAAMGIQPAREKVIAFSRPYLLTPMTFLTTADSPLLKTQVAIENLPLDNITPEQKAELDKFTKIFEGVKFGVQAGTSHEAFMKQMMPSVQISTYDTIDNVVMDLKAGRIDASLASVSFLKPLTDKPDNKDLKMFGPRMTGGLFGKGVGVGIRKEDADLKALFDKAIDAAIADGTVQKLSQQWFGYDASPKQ
Method: (§3) Ligand-NocT interaction was monitored by autofluorescence by exciting the protein at a wavelength of 295 nm and monitoring the quenching of fluorescence emission of tryptophan residues at 340 nm. All experiments were performed at 25°C in 25 mM Tris-HCl pH 8.0 and 150 mM NaCl with a fixed amount of proteins (5 µM) and increasing concentrations of ligand using a SpectraMax M5 microplate reader (Molecular Devices). […] Fluorescence measurements were done in triplicates. The data were analysed using Origin 7 software and fitted to the equation f = ΔFluorescencemax * abs(x)/(KD+abs(x)).

[3] = tested on: A. tumefaciens C58 ocd mutant; assay: Growth assay on opine as sole carbon and nitrogen source, ocd mutant; type: cell-based, Agrobacterium tumefaciens C58; conditions: opine as sole source of carbon and nitrogen at 3 mM, AB medium, OD600 after 24 hours
Description: as §1, §2

NocT [4] = biological target: T1, NocT; assay: KD measurement by isothermal titration calorimetry (ITC), wild-type NocT; type: binding, Agrobacterium tumefaciens C58
Method: ITC experiments were performed with an ITC200 isothermal titration calorimeter from MicroCal Llc (Northampton, MA). The experiments were carried out at 20°C. Protein concentration in the microcalorimeter cell (0.2 ml) varied from 100 to 150 µM. Nineteen injections of 2 µl of the ligand solution concentration from 1.5 to 1.6 mM were performed at intervals of 180 s while stirring at 1000 rpm. The experimental data were fitted to theoretical titration curves with software supplied by MicroCal (ORIGIN). This software uses the relationship between the heat generated by each injection and ΔH (enthalpy change in Kcal.mol^−1), Ka (the association binding constant in M^−1), n (the number of binding sites), total protein concentration and free and total ligand concentrations.

NocT-M117N = biological target: T2, NocT-M117N (Agrobacterium fabrum, UniProt P35120, M117N); assay: KD measurement by fluorescence titration, NocT-M117N mutant; type: binding, Agrobacterium tumefaciens C58
T2 construct: The X-ray structures of the mature free-liganded NocT; made in house; host or cells: E. coli Rosetta pLysS
T2 sequence (P35120 26-283 M117N): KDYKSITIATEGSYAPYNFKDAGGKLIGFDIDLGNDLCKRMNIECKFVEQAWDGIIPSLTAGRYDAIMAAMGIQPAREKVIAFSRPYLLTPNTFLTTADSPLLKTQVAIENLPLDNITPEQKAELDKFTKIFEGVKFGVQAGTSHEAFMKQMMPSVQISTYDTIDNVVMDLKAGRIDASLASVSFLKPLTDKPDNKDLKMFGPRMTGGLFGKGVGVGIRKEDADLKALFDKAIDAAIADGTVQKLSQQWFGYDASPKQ
Description: (§4) Using 5′-[…] and 5′-[…] primers, nocT gene of A. tumefaciens C58 was amplified and then cloned into pET-9aSN1 expression vector (a gift from S. Chéruel, IBBMC, University Paris Sud, Orsay, France). The pET-9aSN1-nocT was used as template to generate directed mutations with QuikChange II XL directed mutagenesis kit (Stratagene). For mutations Met117 to Ser (M117S) and Asn (M117N), the synthetic forward primers 5′–[…] and 5′-[…] and their reverse complemented primers were designed. The nucleotide sequence of all alleles was confirmed by DNA-sequence analysis (GATC, France).
as §3

NocT-M117S = biological target: T3, NocT-M117S (Agrobacterium fabrum, UniProt P35120, M117S); assay: KD measurement by fluorescence titration, NocT-M117S mutant; type: binding, Agrobacterium tumefaciens C58
T3 construct: The X-ray structures of the mature free-liganded NocT; made in house; host or cells: E. coli Rosetta pLysS
T3 sequence (P35120 26-283 M117S): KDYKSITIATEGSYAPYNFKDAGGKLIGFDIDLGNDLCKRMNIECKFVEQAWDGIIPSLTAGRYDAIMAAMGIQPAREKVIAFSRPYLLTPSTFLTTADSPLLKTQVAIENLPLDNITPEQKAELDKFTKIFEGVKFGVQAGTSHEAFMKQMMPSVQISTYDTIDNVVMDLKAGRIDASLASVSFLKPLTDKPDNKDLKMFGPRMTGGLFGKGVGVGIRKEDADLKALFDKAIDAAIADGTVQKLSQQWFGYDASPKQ
Description: as §4, §3

[5] = 20°C, protein 100 to 150 µM, triplicates

SMILES | growth of nocT mutant [1] | Kd (NocT [2]) | growth of ocd mutant [3] | KD (ITC), NocT wt (NocT [4]; [5]) | also measured
N=C(N)NCCCC(NC(CCC(=O)O)C(=O)O)C(=O)O (centres unmarked) [nopaline] | could not grow | 3700 nM | strongly impaired | – | –
N=C(N)NCCCC(C(=O)O)N1C(=O)CCC1C(=O)O (centres unmarked) [pyronopaline] | could not grow | 570 nM and 600 nM | strongly impaired | – | TΔS of binding (ITC) (NocT [4]; 20°C): 12.6 kcal/mol; Kd (NocT [4]; 20°C, protein 100 to 150 µM, triplicates, read-out: KD (ITC), NocT wt): 580 ± 50 nM; enthalpy of binding (ITC) (NocT [4]; positive enthalpy): 2.1 kcal/mol; Kd (NocT-M117N): 39.9 ± 7 µM; KD fold higher than that of the WT protein, NocT-M117N (NocT-M117N; mutant vs WT NocT): 76 fold; Kd (NocT-M117S): 37.8 ± 9 µM; KD fold higher than that of the WT protein, NocT-M117S (NocT-M117S; mutant vs WT NocT): 76 fold
NCCC[C@H](N)C(=O)O [ornithine, reference compound] | – | – | – | no interaction | –
N=C(N)NCCC[C@H](N)C(=O)O [arginine, reference compound] | – | – | – | no interaction | KD (fluorescence titration), NocT wt (NocT [2]): no interaction
N[C@@H](Cc1c[nH]cn1)C(=O)O [histidine, reference compound] | – | – | – | no interaction | –
